Measurements from patent US20220380309A1, “CHOLINE METABOLISM INHIBITORS” (President and Fellows of Harvard College, priority 2018, published 2022).
Where two headings read alike, the source gives them in different places.

Tests used:
E. coli MS 200-1 = assay: Inhibition of TMA production in whole cells (LC-MS/MS assay for choline TMA-lyase activity, d9-TMA from d9-choline); format: cell-based
CutC = CutC (Oleidesulfovibrio alaskensis, UniProt Q30W70); assay: biochemical; format: biochemical
fecal sample = assay: Choline TMA-lyase activity in a fecal suspension ex vivo; format: cell-based; settings: TMA generation, fecal sample 1:10 in Mega media, 1 mM choline-d9, 18 h, 37° C.; read-out: EC50 against fecal sample
E. coli MS69-1 = assay: Choline TMA-lyase activity (TMA generation) in cut gene cluster-harboring bacteria; format: cell-based, Escherichia coli; settings: 1 mM choline-d9, 3.5 hours, 37° C., read-out: EC50 against E. coli MS69-1
Klebsiella sp. MS92-3 = assay: as above; format: cell-based; settings: 1 mM choline-d9, 3.5 hours, 37° C., read-out: EC50 against Klebsiella sp. MS92-3
P. mirabilis ATCC 29906 = assay: as above; format: cell-based, Proteus mirabilis; settings: 1 mM choline-d9, 3.5 hours, 37° C., read-out: EC50 against P. mirabilis ATCC 29906
[1] = Escherichia coli, MS2001, Table 2, inhibition of TMA-d9 production, 1 mM choline-d9, anaerobic, 3.5 hrs, 37° C., read-out: EC50
[2] = Escherichia coli, MS2001, Table 3, TMA generation, 1 mM choline-d9, anaerobic, 3.5 h, 37° C., read-out: EC50 against E. coli MS200-1
[3] = Table 3, TMA generation, 1 mM choline-d9, anaerobic, 3.5 h, 37° C., read-out: EC50 against E. coli MS200-1
[4] = Escherichia coli, MS2001, 3.5 h, read-out: EC50 against E. coli MS200-1

Sequence of CutC (Q30W70 whole entry): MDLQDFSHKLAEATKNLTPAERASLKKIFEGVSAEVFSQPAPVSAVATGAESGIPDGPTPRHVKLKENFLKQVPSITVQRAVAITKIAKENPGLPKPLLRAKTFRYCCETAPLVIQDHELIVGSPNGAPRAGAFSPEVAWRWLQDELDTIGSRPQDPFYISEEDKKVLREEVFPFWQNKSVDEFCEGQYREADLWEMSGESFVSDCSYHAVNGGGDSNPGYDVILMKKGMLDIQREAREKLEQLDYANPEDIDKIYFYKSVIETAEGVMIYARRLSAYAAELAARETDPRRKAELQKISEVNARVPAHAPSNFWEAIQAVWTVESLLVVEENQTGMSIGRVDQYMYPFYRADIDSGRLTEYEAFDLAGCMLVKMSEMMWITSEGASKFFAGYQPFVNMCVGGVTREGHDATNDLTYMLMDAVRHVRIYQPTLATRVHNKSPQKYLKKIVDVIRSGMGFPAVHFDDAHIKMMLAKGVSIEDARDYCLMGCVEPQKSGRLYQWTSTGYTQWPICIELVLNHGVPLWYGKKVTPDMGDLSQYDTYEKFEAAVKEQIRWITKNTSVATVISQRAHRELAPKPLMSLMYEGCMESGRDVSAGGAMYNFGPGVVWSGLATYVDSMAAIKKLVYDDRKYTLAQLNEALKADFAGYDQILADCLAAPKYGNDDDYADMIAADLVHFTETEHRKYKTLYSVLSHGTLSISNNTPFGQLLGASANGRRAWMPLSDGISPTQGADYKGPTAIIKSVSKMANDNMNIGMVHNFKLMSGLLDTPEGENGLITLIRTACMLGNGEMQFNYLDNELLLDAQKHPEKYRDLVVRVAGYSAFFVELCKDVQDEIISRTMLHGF

CN1CCC[C@@H]1CO [Compound 21]
EC50 (E. coli MS 200-1; [1]): 2040 µM

OC1C=CCOC1 (stereo not shown) [Compound 22]
EC50 (E. coli MS 200-1; [1]): 25 µM

CN1CCCC(O)CC1 (stereo not shown) [Compound 24]
EC50 (E. coli MS 200-1; Escherichia coli, MS2001, 3.5 h): 760 µM

C[N+]1(C)CC=CC(O)C1 (stereo not shown) [Compound 25]
EC50 (E. coli MS 200-1; [1]): 10 µM

CN1CCC(O)C1 (stereo not shown) [drawing 102]
EC50 (E. coli MS 200-1; [2]): 6300 µM

CN1CCCC(=O)C1 [drawing 107]
EC50 (E. coli MS 200-1; [3]): 27000 µM

CN1CCC(O)CC1 [drawing 108]
EC50 (E. coli MS 200-1; [2]): 4470 µM

CN1CCCC(O)CC1 (stereo not shown) [drawing 109]
EC50 (E. coli MS 200-1; [4]): 762 µM

CN1CC=CC(O)C1 (stereo not shown) [drawing 110]
EC50 (E. coli MS 200-1; [3]): 10 µM

CN1CC=C[C@H](O)C1 [drawing 112]
EC50 (E. coli MS 200-1; [3]): 10 µM

CN1CC=C[C@@H](O)C1 [drawing 113]
EC50 (E. coli MS 200-1; [3]): 31 µM

C[N+]1(C)CC=CC(O)C1 (stereo not shown) [drawing 114]
EC50 (E. coli MS 200-1; [2]): 8 µM

CC1=CC(O)CN(C)C1 (stereo not shown) [drawing 117]
EC50 (E. coli MS 200-1; [2]): 923 µM

CCCN1CC=CC(O)C1 (stereo not shown) [drawing 118]
EC50 (E. coli MS 200-1; [2]): 196 µM

OC1C=CCN(CC2CC2)C1 (stereo not shown) [drawing 120]
EC50 (E. coli MS 200-1; [2]): 252 µM

OC1C=CCN(CC2CCCCC2)C1 (stereo not shown) [drawing 123]
EC50 (E. coli MS 200-1; [2]): 91 µM

OC1C=CCN(Cc2ccccc2)C1 (stereo not shown) [drawing 124]
EC50 (E. coli MS 200-1; [2]): 367 µM

CC(C)N1CC=CC(O)C1 (stereo not shown) [drawing 136]
inhibition at 3000 µM (E. coli MS 200-1; Escherichia coli, MS2001, Table 3, TMA generation of E. coli MS200-1, 3 mM compound): 83%

OC1C=CCN(C2CCC2)C1 (stereo not shown) [drawing 137]
EC50 (E. coli MS 200-1; [2]): 192 µM

OC1C=CCN(C2CCCC2)C1 (stereo not shown) [drawing 140]
EC50 (E. coli MS 200-1; [2]): 42 µM

CC1CCCC1N1CC=CC(O)C1 (stereo not shown) [drawing 143]
EC50 (E. coli MS 200-1; [4]): 15 µM

CC1CCCC1N1CC=C[C@H](O)C1 (stereo partly shown) [drawing 144]
EC50 (E. coli MS 200-1; [4]): 9 µM

CC1CCCC1N1CC=C[C@@H](O)C1 (stereo partly shown) [drawing 145]
EC50 (E. coli MS 200-1; [4]): 164 µM

OC1C=CCN(C2CCCCC2)C1 (stereo not shown) [drawing 150]
EC50 (E. coli MS 200-1; [2]): 22 µM

O[C@H]1C=CCN(C2CCCCC2)C1 [drawing 151]
EC50 (E. coli MS 200-1; [2]): 14 µM

O[C@@H]1C=CCN(C2CCCCC2)C1 [drawing 152]
EC50 (E. coli MS 200-1; [2]): 108 µM

CC1CCCCC1N1CC=CC(O)C1 (stereo not shown) [drawing 153]
EC50 (E. coli MS 200-1; [2]): 2 µM

CC1CCCCC1N1CC=C[C@H](O)C1 (stereo partly shown) [drawing 154]
EC50 (E. coli MS 200-1; [2]): 12 µM

CC1CCCCC1N1CC=C[C@@H](O)C1 (stereo partly shown) [drawing 155]
EC50 (E. coli MS 200-1; [2]): 68 µM

OC1C=CCN(C2CCCCCC2)C1 (stereo not shown) [drawing 160]
EC50 (E. coli MS 200-1; [2]): 24 µM

OC1C=CCCC1 (stereo not shown) [drawing 162]
EC50 (E. coli MS 200-1; [4]): 259 µM

OC1C=CCOC1 (stereo not shown) [drawing 167]
EC50 (E. coli MS 200-1; [2]): 80 µM

CN1CCCC1CO (stereo not shown) [drawing 170]
EC50 (E. coli MS 200-1; [2]): 298 µM

CN1CCC[C@H]1CO [drawing 171]
EC50 (E. coli MS 200-1; [2]): 185 µM

CN1CCC[C@@H]1CO [drawing 172]
EC50 (E. coli MS 200-1; [2]): 1820 µM

C=CC(O)CN(C)C (stereo not shown) [drawing 174]
EC50 (E. coli MS 200-1; [2]): 70 µM

CN1CCC(O)C1 (stereo not shown) [drawing 176]
IC50 (CutC; read-out: IC50 CutC): 844 µM

CN1CCC(O)CC1 [drawing 179]
IC50 (CutC; read-out: IC50 CutC): 7010 µM

CN1CCCC(O)CC1 (stereo not shown) [drawing 180]
IC50 (CutC; read-out: IC50 CutC): 2600 µM

C[N+]1(C)CC=CC(O)C1 (stereo not shown) [drawing 185]
IC50 (CutC; read-out: IC50 CutC): 7 µM

CC1=CC(O)CN(C)C1 (stereo not shown) [drawing 186]
IC50 (CutC; read-out: IC50 CutC): 422 µM

CCCN1CC=CC(O)C1 (stereo not shown) [drawing 187]
IC50 (CutC; read-out: IC50 CutC): 141 µM

OC1C=CCN(CC2CC2)C1 (stereo not shown) [drawing 188]
IC50 (CutC): 76 µM

OC1C=CCN(CC2CCCCC2)C1 (stereo not shown) [drawing 189]
IC50 (CutC): 24 µM

OC1C=CCN(Cc2ccccc2)C1 (stereo not shown) [drawing 190]
IC50 (CutC; read-out: IC50 CutC): 100 µM

CC(C)N1CC=CC(O)C1 (stereo not shown) [drawing 191]
IC50 (CutC): 110 µM

OC1C=CCN(C2CCC2)C1 (stereo not shown) [drawing 192]
IC50 (CutC): 203 µM

CC1CCCC1N1CC=CC(O)C1 (stereo not shown) [drawing 193]
inhibition at 10 μM (CutC): No inhibition at 10 μM

CC1CCCC1N1CC=C[C@H](O)C1 (stereo partly shown) [drawing 194]
inhibition at 10 μM (CutC): No inhibition at 10 μM

CC1CCCC1N1CC=C[C@@H](O)C1 (stereo partly shown) [drawing 195]
inhibition at 10 μM (CutC): No inhibition at 10 μM

OC1C=CCN(C2CCCCC2)C1 (stereo not shown) [drawing 196]
IC50 (CutC): 63 µM

OC1C=CCN(C2CCCCCC2)C1 (stereo not shown) [drawing 197]
IC50 (CutC): 14 µM

OC1C=CCCC1 (stereo not shown) [drawing 198]
IC50 (CutC; read-out: IC50 CutC): 709 µM

OC1C=CCOC1 (stereo not shown) [drawing 199]
IC50 (CutC; read-out: IC50 CutC): 2890 µM

CN1CCCC1CO (stereo not shown) [drawing 200]
IC50 (CutC): 513 µM

C=CC(O)CN(C)C (stereo not shown) [drawing 201]
IC50 (CutC): 23 µM

CN1CC=CC(O)C1 (stereo not shown) [drawing 203]
EC50 (fecal sample): 78 µM | EC50 (E. coli MS69-1): 27 µM | EC50 (Klebsiella sp. MS92-3): 5 µM | EC50 (P. mirabilis ATCC 29906): 97 µM

CN1CC=C[C@H](O)C1 [drawing 204]
EC50 (fecal sample): 60 µM | EC50 (E. coli MS69-1): 22 µM | EC50 (Klebsiella sp. MS92-3): 4 µM | EC50 (P. mirabilis ATCC 29906): 92 µM

CN1CC=C[C@@H](O)C1 [drawing 205]
EC50 (E. coli MS69-1): 64 µM | EC50 (Klebsiella sp. MS92-3): 17 µM | EC50 (P. mirabilis ATCC 29906): 366 µM
